How the values were obtained:
Experiment in all cases: relative viability (nuclei count vs DMSO), 5 days (fraction); higher = more cells survive
TPCA-1 + Tozasertib = compound: C1=CC(=CC=C1C2=CC(=C(S2)NC(=O)N)C(=O)N)F [TPCA-1] + Cc1cc(Nc2cc(N3CCN(C)CC3)nc(Sc3ccc(NC(=O)C4CC4)cc3)n2)n[nH]1 [Tozasertib] (partner 0.1 µM)
Procedure, shortened: (§1)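 Lung cancer cell lines in 1536-well plates were dosed by pin tool the day after seeding, either with one drug alone or with a fixed anchor-drug dose plus five library-drug doses (not always all listed) in √10 steps. After 5 days, cells were fixed and their nuclei stained in one step (final 0.05% Triton X-100, 1% formaldehyde, 1 ug/ml Hoechst), then counted on 4× images. Relative viability is the nuclei count in treated wells divided by that in vehicle wells. Values are medians of duplicate plates.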

[1] = compound: C1/C(=C\C2=CC=CS2)/C(=O)/C(=C/C3=CC=CS3)/C1 + CC(=O)c1c(C)c2cnc(Nc3ccc(N4CCNCC4)cn3)nc2n(C2CCCC2)c1=O [Palbociclib] (partner 0.5 µM)
Procedure, shortened: as §1

Lestaurtinib + AZD7762 = compound: C[C@]12O[C@H](C[C@]1(O)CO)n1c3ccccc3c3c4c(c5c6ccccc6n2c5c31)CNC4=O [Lestaurtinib] + NC(=O)Nc1cc(-c2cccc(F)c2)sc1C(=O)N[C@H]1CCCNC1 [AZD7762] (partner 0.2 µM)
Procedure, shortened: as §1

[2] = compound: C[C@]12O[C@H](C[C@]1(O)CO)n1c3ccccc3c3c4c(c5c6ccccc6n2c5c31)CNC4=O [Lestaurtinib] + CC1(C)CCC(c2ccc(Cl)cc2)=C(CN2CCN(c3ccc(C(=O)NS(=O)(=O)c4ccc(N[C@H](CCN5CCOCC5)CSc5ccccc5)c(S(=O)(=O)C(F)(F)F)c4)cc3)CC2)C1 [Navitoclax] (partner 0.5 µM)
Procedure, shortened: as §1

| Cell Line | relative viability (TPCA-1 + Tozasertib; first compound 0.04 µM) | relative viability (TPCA-1 + Tozasertib; first compound 0.1265 µM) | relative viability (TPCA-1 + Tozasertib; first compound 0.4 µM) | relative viability (TPCA-1 + Tozasertib; first compound 1.265 µM) | relative viability (TPCA-1 + Tozasertib; first compound 4 µM) | relative viability ([1]; first compound 0.2 µM) | relative viability ([1]; first compound 0.6325 µM) | relative viability ([1]; first compound 2 µM) | relative viability ([1]; first compound 6.325 µM) | relative viability ([1]; first compound 20 µM) | relative viability (Lestaurtinib + AZD7762; first compound 0.005 µM) | relative viability (Lestaurtinib + AZD7762; first compound 0.01581 µM) | relative viability (Lestaurtinib + AZD7762; first compound 0.05 µM) | relative viability (Lestaurtinib + AZD7762; first compound 0.1581 µM) | relative viability (Lestaurtinib + AZD7762; first compound 0.5 µM) | relative viability ([2]; first compound 0.005 µM) | relative viability ([2]; first compound 0.01581 µM) | relative viability ([2]; first compound 0.05 µM) | relative viability ([2]; first compound 0.1581 µM) | relative viability ([2]; first compound 0.5 µM) |
| --- | --- | --- | --- | --- | --- | --- | --- | --- | --- | --- | --- | --- | --- | --- | --- | --- | --- | --- | --- | --- |
| NCI-H2085 | 0.863 | 0.72 | 0.746 | 0.735 | 0.479 | 0.482 | 0.5 | 0.484 | 0.46 | 0.495 | 0.917 | 0.938 | 0.941 | 0.98 | 0.827 | 1.15 | 1.36 | 1.1 | 1.27 | 0.979 |
| NCI-H2087 | 0.243 | 0.239 | 0.28 | 0.2 | 0.116 | 0.272 | 0.215 | 0.271 | 0.168 | 0.303 | 1.27 | 1.2 | 1.06 | 0.761 | 0.302 | 0.946 | 0.853 | 0.686 | 0.707 | 0.26 |
| NCI-H2126 | 0.877 | 0.768 | 0.886 | 0.829 | 0.338 | 0.343 | 0.339 | 0.363 | 0.332 | 0.374 | 1.04 | 1.01 | 0.877 | 0.988 | 0.813 | 0.924 | 0.914 | 0.854 | 0.632 | 0.75 |
| NCI-H2170 | 0.731 | 0.644 | 0.718 | 0.66 | 0.387 | 0.386 | 0.382 | 0.376 | 0.248 | 0.393 | 0.847 | 0.784 | 0.655 | 0.83 | 0.241 | 0.378 | 0.393 | 0.368 | 0.442 | 0.263 |
| NCI-H2347 | 0.527 | 0.52 | 0.454 | 0.599 | 0.336 | 0.381 | 0.454 | 0.449 | 0.398 | 0.413 | 0.7 | 0.83 | 0.648 | 0.568 | 0.466 | 0.835 | 0.87 | 0.575 | 0.526 | 0.42 |
| NCI-H2405 | 0.753 | 0.75 | 0.765 | 0.754 | 0.555 | 0.555 | 0.509 | 0.575 | 0.52 | 0.504 | 0.746 | 0.885 | 0.492 | 0.662 | 0.218 | 1 | 0.86 | 0.889 | 0.55 | 0.216 |
| NCI-H3122 | 0.465 | 0.37 | 0.463 | 0.329 | 0.268 | 0.178 | 0.175 | 0.172 | 0.201 | 0.171 | 1.05 | 1.08 | 1.1 | 1.32 | 0.537 | 1.13 | 1.1 | 1.12 | 1.12 | 0.536 |
| PC-3 [JPC-3] | 0.869 | 0.874 | 0.892 | 0.848 | 0.545 |  | 0.587 | 0.5 | 0.43 | 0.523 | 0.759 | 1.04 | 0.688 | 0.586 | 0.485 | 0.84 | 0.788 | 0.763 | 0.65 | 0.55 |
| PC-14 | 0.587 | 0.55 | 0.58 | 0.585 | 0.28 | 0.668 | 0.563 | 0.523 | 0.435 | 0.501 | 0.336 | 0.57 | 0.362 | 0.248 | 0.146 | 1.09 | 1.07 | 0.765 | 0.863 | 0.607 |
| RERF-LC-KJ | 0.556 | 0.518 | 0.61 | 0.43 | 0.29 | 1.04 | 1.2 | 1.05 | 0.965 | 0.852 | 1.1 | 1.16 | 0.729 | 0.984 | 0.61 | 1.24 | 1.1 | 0.792 | 0.618 | 0.641 |
